Measurements published in PMC11876692, “Synthesis, physicochemical characterization and biological activity of novel pyrrole flavones” (Scientific Reports, 2025).

How the values were obtained:
5637 cells = test: MTT assay, cytotoxicity towards 5637 bladder cancer cells; format: cell-based, human; conditions: for IC50: Homo sapiens, MTT; for cell viability: preliminary experiment (10 µM implied)
Procedure: (§1) Human urinary bladder grade II carcinoma cell line (5637), human urinary bladder carcinoma (HT-1376), and human lung fibroblasts (MRC-5) were purchased from ATCC (Manassas, VA, USA). The 5637 cells were grown in RPMI, HT-1376 cells were cultured in EMEM, and MRC-5 in DMEM. All media were supplemented with 10% (v/v) FBS, 2 mM L-glutamine, 100 U/mL penicillin, and […] streptomycin (1% v/v). The cells were cultured at 37 °C in a humidified atmosphere with 5% CO2.
(§2) Tested compounds were dissolved in DMSO at a concentration of 10 mM for preliminary study. […] Stock solutions were stored in the dark at -20 °C.
(§3) For the preliminary experiments, the 5637 cells were used. The compounds were prepared in the cell culture medium at a concentration of 0.1 µM, 1 µM, and 10 µM. DMSO was used as a control. […] Cells were treated with compounds for 24, 48, and 72 h. Cells were washed twice with DPBS, and 170 µL of MTT solution at a final concentration of 0.59 mg/mL in culture medium was added. Cells were incubated with MTT solution for 1.5 h at standard cell culture conditions. After incubation, MTT was removed, and formazan crystals were dissolved with 200 µL DMSO. The absorbance was measured at a wavelength of 570 nm using a plate reader (Biotek Instruments, Elx-800, Winooski, VT, USA).
(§4) Subsequently, cells were treated with compound 4a at a concentration of 0.5 µM, 1 µM, 2 µM, 4 µM, 6 µM, and 8 µM and compound 5b at a concentration range of 2 µM, 4 µM, 6 µM, 8 µM,10 µM, and 15 µM for 24 h and 48 h. […] The MTT assay was performed as described above.
(§5) The IC50 values were calculated using the GraphPad Prism 8 software (GraphPad Software, Inc., La Jolla, CA, USA), and cell viability was expressed as a percentage of the control. At least three biological replicates were performed for each compound.

Aliivibrio fischeri = conditions: 10 µM
Procedure: All the synthesized derivatives were subjected to the Microtox test. […] The acute toxicity of the tested compounds was measured using the Microtox test. For the measurements, the 81.9% screening test procedure was applied using the Microtox [MUT] apparatus along with the Microtox Omni 4.2 software supplied by the manufacturer (Modern Water plc). Briefly, the bioluminescence of bacterial suspension was measured before the addition of the solution of the tested compound and after 5 and 15 min upon exposure. […] As the control, 2% sodium chloride solution was used (Modern Water Microtox Diluent).

[1] = MTT assay, cytotoxicity towards non-cancerous MRC-5 fibroblasts; format: cell-based, human; conditions: human, MRC-5 lung fibroblasts, MRC-5 cells, 24 h, read-out: cell viability
Procedure: as §1, §2, §3, §4, §5

MRC-5 cells = test: as above; format: cell-based, human; conditions: for IC50: Homo sapiens, MTT; for effect on viability of MRC-5 cells: all tested concentrations (2-15 µM), 24 and 48 h
Procedure: as §1, §2, §3, §4, §5

HT-1376 cells = test: MTT assay, cytotoxicity towards HT-1376 bladder cancer cells; format: cell-based, human
Procedure: as §1, §2, §3, §4, §5

[2] = Homo sapiens, HT-1376, 24 h, 24 h
[3] = Homo sapiens, HT-1376, 48 h, 48 h

Row | SMILES | effect on viability of cancer cells (5637 cells; 10 µM) | decrease in bioluminescence (Aliivibrio fischeri) [%] | IC50 (5637 cells; 24 h) [µM] | IC50 (5637 cells; 48 h) [µM] | viability at 24 h, 6 µM ([1]; 6 µM) [%] | viability at 24 h, 8 µM ([1]; 8 µM) [%] | IC50 (MRC-5 cells; MRC5, 24 h) [µM] | IC50 (MRC-5 cells; MRC5, 48 h) [µM] | IC50 (HT-1376 cells; 24 h) [µM] | IC50 (HT-1376 cells; [2]) [µM] | IC50 (HT-1376 cells; [3]) [µM] | cell viability (5637 cells; 48 h of incubation) [%] | cell viability (5637 cells; 72 h of incubation) [%] | effect on viability of MRC-5 cells (MRC-5 cells) | effect on viability of MRC-5 cells (MRC-5 cells; listed as flavone derivative with 7-(2-methyl-5-phenylpyrrol-1-yl))
1 | Cc1ccc(C)n1-c1ccc2oc(-c3ccccc3)cc(=O)c2c1 [4a, 6-(2,5-Dimethylpyrrol-1-yl)-2-phenylchromen-4-one] | did not affect the viability | 80 |  |  |  |  |  |  |  |  |  |  |  |  | 
2 | Cc1ccc(-c2ccccc2)n1-c1ccc2oc(-c3ccccc3)cc(=O)c2c1 [4b, 6-(2-Methyl-5-phenylpyrrol-1-yl)-2-phenylchromen-4-one] |  |  | 2.97 ± 0.17 | 2.12 ± 0.19 | 57 | 52 | > 8 | 5.21 ± 0.1 | 5.89 ± 1.1 | ~5 | 5.37 ± 1.44 |  |  |  | 
3 | Cc1ccc(C)n1-c1ccc2c(=O)cc(-c3ccccc3)oc2c1 [5a, 7-(2,5-Dimethylpyrrol-1-yl)-2-phenylchromen-4-one] |  |  |  |  |  |  |  |  |  |  |  | 75.8 | 48 |  | 
4 | Cc1ccc(-c2ccccc2)n1-c1ccc2c(=O)cc(-c3ccccc3)oc2c1 [5b, 7-(2-Methyl-5-phenylpyrrol-1-yl)-2-phenylchromen-4-one] |  |  | 7.39 ± 2.02 | 4.61 ± 0.1 |  |  | > 15 | > 15 | 13.5 ± 1.41 | ~13 | 11.7 ± 1.74 |  |  | did not decrease cell viability | without any effect
